Measurements as given in US8420144B2, “Kokumi-imparting agent, method of using, and compositions containing same” (Ajinomoto Co., Inc., priority 2005, dated 2013).

Legend:
Format in all cases: in vivo, human
[1] = Quantitative sensory evaluation test: kokumi-imparting activity of peptides combined with known calcium receptor activators or additives; settings: for Intensity of kokumi: Aftertaste / Intensity of kokumi: First and middle taste: alone, n=12, 0 control, 3 intense, 6 extremely intense
Description: The intensity of the kokumi-imparting activity of each peptide having confirmed calcium receptor activation activity and a known calcium receptor activator used in combination was measured by a quantitative sensory evaluation test, performed as follows: Samples of γ-Glu-Cys-Gly (glutathione) or γ-Glu-Val-Gly (0.0001 to 1 g/dl), or these samples combined with a calcium receptor activator such as calcium lactate, protamine or polylysine, or GABA (addition concentration: 0.0001 to 1 g/dl) were added to distilled water containing sodium glutamate (0.05 g/dl), inosine monophosphate (0.05 g/dl), and sodium chloride (0.5 g/dl), and the intensity of the kokumi-imparting activity was measured. Sample solutions that became acidic after dissolution of the samples were adjusted to pH 6.8 to 7.2 with NaOH before use. Sensory evaluation scores were used to evaluate as follows: 0 points for the control sample, 3 points for intense activity (as intensity of 0.05 g/dl γ-Glu-Cys-Gly and 0.005 g/dl γ-Glu-Val-Gly), and 6 points for extremely intense activity (as twice intensity of 0.05 g/dl γ-Glu-Cys-Gly and 0.005 g/dl γ-Glu-Val-Gly), and the test was performed with n=12.

[2] = Quantitative sensory evaluation test: imparting kokumi to corn soup; settings: n=12, 0 control, 3 intense, 5 extremely intense
Description: The intensity of the activity for imparting kokumi to corn soup of each peptide having confirmed calcium receptor activation activity was measured by a quantitative sensory evaluation test, performed as follows: to commercially available corn soup, samples of either γ-Glu-Cys-Gly (glutathione) or γ-Glu-Val-Gly were added to a concentration of 0.0001 to 1 g/dl, and the intensity of the kokumi-imparting activity was measured for each sample. The corn soup with the samples that became acidic after dissolution of the samples with respect to the corn soup without the samples was adjusted with NaOH to pH not lower or higher by 0.2 than pH of the corn soup without the samples before use. Sensory evaluation scores were used to evaluate as follows: 0 points for the control sample, 3 points for intense activity as compared to the control, and 5 points for extremely intense activity as compared to the control, and the test was performed with n=12.

[3] = Quantitative sensory evaluation test: imparting kokumi to curry sauce; settings: n=12, 0 control, 3 intense, 5 extremely intense
Description: The intensity of the activity for imparting kokumi to curry sauce of each peptide having confirmed calcium receptor activation activity was measured by a quantitative sensory evaluation test, performed as follows: to curry sauce prepared in a conventional manner by using commercially available curry roux, samples of either γ-Glu-Cys-Gly (glutathione) or γ-Glu-Val-Gly were added to a concentration of 0.0001 to 1 g/dl, and the intensity of kokumi-imparting activity was measured for each sample. The curry sauces with the samples that became acidic after dissolution of the samples with respect to the curry soup without the samples were adjusted with NaOH to pH not lower or higher by 0.2 than pH of the curry soup without the samples before use. Sensory evaluation scores were used to evaluate as follows: 0 points for the control sample, 3 points for intense activity as compared to the control, and 5 points for extremely intense activity as compared to the control, and the test was performed with n=12.

[4] = Quantitative sensory evaluation test: imparting kokumi to Japanese clear soup; settings: n=12, 0 control, 3 intense, 5 extremely intense
Description: The intensity of activity for imparting kokumi to clear soup of each peptide having confirmed calcium receptor activation activity was measured by a quantitative sensory evaluation test, performed as follows: Japanese clear soup was prepared by adding 0.5 g/dl of soy sauce and 0.6 g/dl of sodium chloride to bonito kelp stock, obtained by adding 5 g of dried kelp to 3 L of water, heating the water, adding 25 g of dried bonito flakes just before boiling, and then filtering the water containing kelp and bonito flakes. To this clear soup, samples of either γ-Glu-Cys-Gly (glutathione) or γ-Glu-Val-Gly was added to a concentration of 0.0001 to 1 g/dl, and the intensity of the kokumi-imparting activity was measured for each sample. The clear soup with the samples that became acidic after dissolution of the samples with respect to the clear soup without the samples were adjusted with NaOH to pH not lower or higher by 0.2 than pH of the clear soup without the samples before use. Sensory evaluation scores were used to evaluate as follows: 0 points for the control sample, 3 points for intense activity as compared to the control, and 5 points for extremely intense activity as compared to the control, and the test was performed with n=12.

[5] = Quantitative sensory evaluation test of activity on basic tastes (umami, sweet, salty, sour standards); settings: n=12, 0 control, 1 fairly intense, 2 intense; for Sour taste (intensity of activity on basic tastes): citric acid 0.05 g/dl standard; for Salty taste (intensity of activity on basic tastes): sodium chloride 0.7 g/dl standard; for Umami (intensity of activity on basic tastes): sodium glutamate 0.2 g/dl standard; for Sweet taste (intensity of activity on basic tastes): sucrose 5 g/dl standard
Description: The intensity of the activity on basic tastes of each peptide having confirmed calcium receptor activation activity was measured by a quantitative sensory evaluation test, performed as follows: Samples of either γ-Glu-Cys-Gly (glutathione) or γ-Glu-Val-Gly were added to distilled water (0.0001 to 1 g/dl) containing sodium glutamate (0.2 g/dl) for the umami standard, sucrose (5 g/dl) for the sweet taste standard, sodium chloride (0.7 g/dl) or the salty taste standard, or citric acid (0.05 g/dl) for the sour taste standard, and the intensity of the activity on basic tastes was measured for each sample.
Sample solutions that became acidic after dissolution of the samples with respect to the standard solutions without the samples were adjusted with NaOH to pH not lower or higher by 0.2 than pH of the standard solutions before use. Sensory evaluation scores were used to evaluate the intensity as follows: 0 points for the control sample, 1 point for fairly intense activity as compared to the control, and 2 points for intense activity as compared to the control, and the test was performed with n=12.

**Q.** For `N[C@@H](CCC(=O)N[C@@H](CS)C(=O)NCC(=O)O)C(=O)O` [γ-Glu-Cys-Gly, reference compound], which “Intensity of kokumi: Aftertaste” value ([1]; 0.05 g/dl) is on record?
**A.** Its value is 3.0 points.

**Q.** What about the “Intensity of kokumi: First and middle taste” value ([1]; 0.05 g/dl) of the same compound?
**A.** Its value is 3.0 points.

**Q.** What about the “kokumi-imparting activity when used with a known calcium receptor activator or the like such as calcium” value ([1]; conclusion from Table 13) of the same compound?
**A.** Its value is “can have improved kokumi-imparting activity”.

**Q.** What about the “Intensity of kokumi: Aftertaste” value ([2]; 0.01 g/dl) of the same compound?
**A.** The value was 3.0 points.

**Q.** What about the “Intensity of kokumi: First and middle taste” value ([2]; 0.01 g/dl) of the same compound?
**A.** Its value is 3.0 points.

**Q.** And the “Intensity of kokumi: Aftertaste” value ([3]; 0.01 g/dl)?
**A.** Its value is 3.0 points.

**Q.** What about the “Intensity of kokumi: First and middle taste” value ([3]; 0.01 g/dl) of the same compound?
**A.** The value was 3.0 points.

**Q.** And the “Intensity of kokumi: Aftertaste” value ([4]; 0.01 g/dl)?
**A.** The value was 2.0 points.

**Q.** What about the “Intensity of kokumi: First and middle taste” value ([4]; 0.01 g/dl) of the same compound?
**A.** The value was 2.0 points.

**Q.** What about the “Sour taste (intensity of activity on basic tastes)” value (shortened to “Sour taste”) ([5]; 0.10 g/dl) of the same compound?
**A.** Its value is 1.5 points.

**Q.** What about the “Salty taste (intensity of activity on basic tastes)” value (“Salty taste” below) ([5]; 0.10 g/dl) of the same compound?
**A.** The value was 0.2 points.

**Q.** What about the “Umami (intensity of activity on basic tastes)” value (shortened to “Umami”) ([5]; 0.10 g/dl) of the same compound?
**A.** Its value is 0.7 points.

**Q.** And the “Sweet taste (intensity of activity on basic tastes)” value (shortened to “Sweet taste”) ([5]; 0.10 g/dl)?
**A.** The value was 1.5 points.

**Q.** Which “Intensity of kokumi: Aftertaste” value ([1]; 0.005 g/dl) does the source give for `CC(C)[C@H](NC(=O)CC[C@H](N)C(=O)O)C(=O)NCC(=O)O` [γ-Glu-Val-Gly] here?
**A.** Its value is 3.0 points.

**Q.** What about the “Intensity of kokumi: First and middle taste” value ([1]; 0.005 g/dl) of the same compound?
**A.** The value was 3.0 points.

**Q.** What about the “Intensity of kokumi: Aftertaste” value ([2]; 0.0005 g/dl) of the same compound?
**A.** The value was 3.0 points.

**Q.** And the “Intensity of kokumi: First and middle taste” value ([2]; 0.0005 g/dl)?
**A.** The value was 2.5 points.

**Q.** What about the “Intensity of kokumi: Aftertaste” value ([2]; 0.001 g/dl) of the same compound?
**A.** Its value is 4.0 points.

**Q.** What about the “Intensity of kokumi: First and middle taste” value ([2]; 0.001 g/dl) of the same compound?
**A.** The value was 3.5 points.

**Q.** And the “Intensity of kokumi: Aftertaste” value ([2]; 0.01 g/dl)?
**A.** Its value is 5.0 points.

**Q.** What about the “Intensity of kokumi: First and middle taste” value ([2]; 0.01 g/dl) of the same compound?
**A.** The value was 4.5 points.

**Q.** What about the “Intensity of kokumi: Aftertaste” value ([2]; 0.1 g/dl) of the same compound?
**A.** Its value is 5.0 points.

**Q.** And the “Intensity of kokumi: First and middle taste” value ([2]; 0.1 g/dl)?
**A.** The value was 5.0 points.

**Q.** And the “Intensity of kokumi: Aftertaste” value ([3]; 0.001 g/dl)?
**A.** The value was 3.0 points.

**Q.** And the “Intensity of kokumi: First and middle taste” value ([3]; 0.001 g/dl)?
**A.** The value was 2.5 points.

**Q.** What about the “Intensity of kokumi: Aftertaste” value ([3]; 0.005 g/dl) of the same compound?
**A.** Its value is 4.0 points.

**Q.** What about the “Intensity of kokumi: First and middle taste” value ([3]; 0.005 g/dl) of the same compound?
**A.** Its value is 3.5 points.

**Q.** What about the “Intensity of kokumi: Aftertaste” value ([3]; 0.01 g/dl) of the same compound?
**A.** The value was 5.0 points.

**Q.** And the “Intensity of kokumi: First and middle taste” value ([3]; 0.01 g/dl)?
**A.** The value was 5.0 points.

**Q.** And the “Intensity of kokumi: Aftertaste” value ([3]; 0.1 g/dl)?
**A.** Its value is 5.0 points.

**Q.** And the “Intensity of kokumi: First and middle taste” value ([3]; 0.1 g/dl)?
**A.** The value was 5.0 points.

**Q.** What about the “Intensity of kokumi: Aftertaste” value ([4]; 0.0005 g/dl) of the same compound?
**A.** Its value is 3.0 points.

**Q.** And the “Intensity of kokumi: First and middle taste” value ([4]; 0.0005 g/dl)?
**A.** The value was 2.5 points.

**Q.** And the “Intensity of kokumi: Aftertaste” value ([4]; 0.001 g/dl)?
**A.** The value was 4.0 points.

**Q.** And the “Intensity of kokumi: First and middle taste” value ([4]; 0.001 g/dl)?
**A.** Its value is 3.5 points.

**Q.** And the “Intensity of kokumi: Aftertaste” value ([4]; 0.01 g/dl)?
**A.** The value was 5.0 points.

**Q.** What about the “Intensity of kokumi: First and middle taste” value ([4]; 0.01 g/dl) of the same compound?
**A.** The value was 5.0 points.

**Q.** And the “Intensity of kokumi: Aftertaste” value ([4]; 0.1 g/dl)?
**A.** The value was 5.0 points.

**Q.** What about the “Intensity of kokumi: First and middle taste” value ([4]; 0.1 g/dl) of the same compound?
**A.** Its value is 5.0 points.

**Q.** And the “Sour taste” value ([5]; 0.005 g/dl)?
**A.** Its value is 0.5 points.

**Q.** What about the “Salty taste” value ([5]; 0.005 g/dl) of the same compound?
**A.** The value was 0.5 points.

**Q.** What about the “Umami” value ([5]; 0.005 g/dl) of the same compound?
**A.** The value was 0.7 points.

**Q.** What about the “Sweet taste” value ([5]; 0.005 g/dl) of the same compound?
**A.** The value was 0.5 points.

**Q.** What about the “Sour taste” value ([5]; 0.01 g/dl) of the same compound?
**A.** Its value is 1.0 points.

**Q.** And the “Salty taste” value ([5]; 0.01 g/dl)?
**A.** The value was 1.0 points.

**Q.** What about the “Umami” value ([5]; 0.01 g/dl) of the same compound?
**A.** The value was 1.5 points.

**Q.** What about the “Sweet taste” value ([5]; 0.01 g/dl) of the same compound?
**A.** Its value is 1.0 points.
